In US11700767B2, “Condensed cyclic compound, composition including the condensed cyclic compound, and organic light-emitting device including the composition” (SAMSUNG ELECTRONICS CO., LTD., priority 2017, dated 2023):

Test: Measurement of solubility in methyl benzoate (Evaluation Example 1)
Assay type: physicochemical
Conditions: for Solubility: solvent methyl benzoate, room temperature, ultrasonic irradiation, visual check; for solubility in an organic solvent, as compared with host-c: qualitative statement referring to Table 1
Procedure: 50 milligrams (mg) of Compound 1-1 and 450 mg of methyl benzoate (solvent) were added to a colorless sample bottle, the mixture was irradiated with ultrasonic waves at room temperature for 5 minutes, and the presence or absence of Compound 1-1 was visually confirmed. […] If Compound 1-1 remained, a small amount of the solvent was added, the irradiation with ultrasonic waves was repeated, and an amount of the solvent was measured until Compound 1-1 was completely dissolved. The solubility was calculated from an amount of the solvent finally used. The solubility values of Compound 1-2 and host-c were calculated in the same manner.

| Compound | Solubility [weight %] | solubility in an organic solvent, as compared with host-c |
| --- | --- | --- |
| c1ccc(-c2nc(-c3ccccc3)nc(-c3cc(-n4c5ccccc5c5ccccc54)cc4c3oc3ccccc34)n2)cc1 [host-c, reference compound] | 0.1 |  |
| c1ccc(-c2cccc(-c3cccc(-c4ccc5c(c4)c4ccccc4n5-c4ccc(-c5cccc(-c6cc(-c7cccc(-c8cccc(-c9cccc(-c%10nc(-c%11ccccc%11)nc(-c%11ccccc%11)n%10)c9)c8)c7)c7oc8ccccc8c7c6)c5)cc4)c3)c2)cc1 [Compound 1-2] | 4 | high solubility |
| c1ccc(-c2cccc(-c3cccc(-c4ccc5c(c4)c4ccccc4n5-c4ccc(-c5cccc(-c6cc(-c7ccc(-c8cccc(-c9nc(-c%10ccccc%10)nc(-c%10ccccc%10)n9)c8)cc7)c7oc8ccccc8c7c6)c5)cc4)c3)c2)cc1 [Compound 1-1] | 4 | high solubility |
